Data: patent US20040248871A1, “Use of lysyl oxidase inhibitors for cell culture and tissue engineering” (priority 2001, published 2004)
Several values for one entry are separate records, joined by “and”; a condition that tells them apart may be missing. Identical values can stand only once.

Tests used:
[1] = tested on: standard purified aortic LO; assay: Lysyl oxidase activity assay with tritiated elastin substrate on standard purified aortic LO; format: biochemical; settings: Experiment 2, substrate no. 2, standard purified aortic LO
Method: (§1) The Lysyl oxidase activity was assayed with 300,000 dpm of labelled elastin on the Lysine, substrate of the enzyme (Shackelton and Hulmes Anal. Biochem. (1990) 185: 359-362). The determination of the presence of Lysyl oxidases in the cultures of chondrocytes is carried out according to the standard methods of immunodecoration of the supports onto which the bands separated from the proteins extracted from the corresponding culture media or from the cell lawns have been transferred.

[2] = tested on: LOX, LOXL1 expression by chondrocytes; assay: Immunodecoration with anti LOX, LOXL1 antibodies of extracts of chondrocyte cell lawns and culture medium; format: cell-based, chicken; settings: 6th or 14th day of culture
Method: as §1
The day before the samples are taken, the cell lawn is washed three times with medium without serum. The medium is then changed for 24 hours with complete medium without serum.
On the 6th or 14th day of culture the media are sampled and precipitated in a standard fashion with TCA 10% final/4° C./[…]. The centrifugation pellets are rinsed with acetone then solubilized in a 50 μl electrophoresis buffer. The rinsed cell lawns are lysed 2 hours/4° C. (300 μl/P35) in the mixture 8M urea, 0.5% Nonidet, 16 mM disodium phosphate pH 8 and protease inhibitors. […]
After separation by SDS PAGE and transfer by Western Blot, the protein bands are analyzed by immunodecoration using polyclonal anti-LOX and anti-LOXL1 antibodies from rabbits, then a second anti-rabbit antibody marked with alkaline phosphatase before development with the reagent NBT/BCIP (Roche Diagnostic GmBH, Mannheim, Germany).

[3] = tested on: normal human chondrocytes; assay: Normal human chondrocytes in 3D culture in collagen-GAG-chitosan sponge (immunofluorescence, histology); format: cell-based; settings: 3D culture in sponge, three months
From the text: The chondrocytes obtained after ligamentoplasty have been used for the three-dimensional culture in collagen-GAG-chitosan sponge (Collombel et al. 1987)* in the presence or absence of BAPN (FIGS. 7 and 8). * Collombel C., Damour O., Gagneu C., Poinsignon F., Echinard C., Marichy J.: Peau artificielle et son procédé de fabrication. French Patent No. 87-08752 (15th Jun. 1987), European Patent No. 88-420194.8 (14th Jun. 1988).
Nevertheless, human chondrocytes dedifferentiated in terms of the period of culture necessary for their multiplication in culture on plastic, can advantageously be placed in three-dimensional (3D) culture in the presence of βAPN. The placing in 3D culture not being sufficient, in itself, to ensure a return to the cartilage phenotype lost during the 2-dimensional culture in the presence of serum, as was described for 3D cultures in agarose.
3 D culture in sponges of collagen-GAG-chitosan in the presence of serum and βAPN of normal human chondrocytes. The chondrocytes were previously multiplied, and dedifferentiated, in 2D culture on plastic.

keratinocytes = assay: Keratinocytes cultured in monolayer: cell count and MTT viability test; format: cell-based, human
From the text: (§2) The support of the reconstructed skin model is constituted by a dermal substrate (DS) with a base of collagen-glycosaminoglycan cross-linked by chitosan according to the technique published by Duplan-Perrat et al (J Invest Dermatol 2000 114:365). Fibroblasts are inoculated the inside of the DS in order to obtain an equivalent dermis. The reconstituted skin (RS) is obtained by inoculating the keratinocytes after 15 days (day 15) of culture in equivalent dermis. The dermal fibroblasts are obtained from explants of human prepuces after dermal-epidermal separation and cultured in monolayer in DMEM medium (Sigma) supplemented by 10% fœtal calf serum, 4 mM L-glutamine, EGF (Austral Biologic) at 10 ng/ml, penicillin at 100 UI/ml, gentamicin at 100 μg/ml and amphotericin B at 1 μg/ml. The keratinocytes are from a human skin biopsy sample after dermal-epidermal separation by trypsination. The cells are inoculated nutritive layers (irradiated fibroblasts) and cultured in DMEM and HAM F12 at 30% supplemented with fœetal calf serum at 10%, EGF at 10 ng/ml, hydrocortisone at 1.6 ng/ml, umulin at 0.12 UI/ml, choleratoxin at 0.1 nM, triiodothyronine at 0.2 μM, adenine at 24 μg/ml, 4 mM L-Glutamine, penicillin at 100 UI/ml, gentamicin at 100 μg/ml and amphotericin B at 1 μg/ml.
In fact, the number of these cells is reduced by approximately 50% compared to the control when they are cultured in the presence of 600 μg/ml of βAPN. […] The results of the MTT viability test confirm those of the cell count. […] It must be emphasized that βAPN at 200 μg/ml can optionally cause an increase in cell activity (proliferation and viability) on the fibroblasts inoculated at a low density, and on the fibroblasts and the keratinocytes inoculated at a high density.

[4] = tested on: reconstructed skin (fibroblasts and keratinocytes); assay: Retraction (surface area) of reconstructed skins; format: cell-based, human; settings: for surface area compared to the initial original surface area: 35 days of culture
From the text: (§3) The method allowing the formation of the reconstructed skin is that described in the French Patent 87-08252 of the 15th Jun. 1987.
as §2
A mixture with a base of bovine collagen of type I and III (72%), glycosaminoglycan (8%) cross-linked by chitosan (20%) is poured into 6-well plates. The dermal substrates thus obtained are then frozen at −80° C. and lyophilized. The fibroblasts are inoculated in the dermal substrate, rehydrated and sterilized at a rate of 250,000 cells per cm^2. Keratinocytes are inoculated after 15 days (day 15) at a density of 200,000 to 250,000 cells/cm^2. The reconstructed skins are cultured for 8 days in immersion, in the medium described previously supplemented with 50 μg/ml of vitamin C. Then the reconstructed skins are raised to the air-liquid interface using a simplified culture medium with a DMEM base, supplemented with fœtal calf serum, EGF, hydrocortisone, umulin, L-glutamine, penicillin, gentamicin, and amphotericin B, and ascorbic acid, at the concentrations described above. The reconstructed skins are cultured up to day 60. Samples are taken at day 30 and day 60 for the different analyses.
βAPN (50 μg/ml) is added immediately upon inoculation, to the culture medium which is renewed every 2 days and applied to the cultures of chondrocytes as well as to those of fibroblasts then of keratinocytes during the formation of the reconstructed skin.

[5] = tested on: reconstructed skin (fibroblasts and keratinocytes); assay: Histology, immunohistology and in situ hybridization of reconstructed skins; format: cell-based, human
From the text: as §3, §2
A mixture with a base of bovine collagen of type I and III (72%), glycosaminoglycan (8%) cross-linked by chitosan (20%) is poured into 6-well plates. The dermal substrates thus obtained are then frozen at −80° C. and lyophilized. The fibroblasts are inoculated in the dermal substrate, rehydrated and sterilized at a rate of 250,000 cells per cm^2. Keratinocytes are inoculated after 15 days (day 15) at a density of 200,000 to 250,000 cells/cm^2. The reconstructed skins are cultured for 8 days in immersion, in the medium described previously supplemented with 50 μg/ml of vitamin C. […]

N#CCCN [βAPN, β-aminopropionitrile]
dpm + βAPN (Lysyl oxidase activity assay) [1]: 4340 dpm and 4762 dpm
expression of Lysyl oxidase molecules (LOX, LOXL1) [2]: does not modify the expression of Lysyl oxidase molecules
intensity of marking of the collagen I [3]: strong decrease
intensity of marking of the collagen II and of the aggrecan (cartilage markers) [3]: clear increase
reduction of proliferation of the keratinocytes (keratinocytes; 200 μg/ml): approximately 10%
effect on the viability and the multiplication (keratinocytes; 200 μg/ml, isolated cultures): little effect
reduction of the number of cells compared to the control (keratinocytes; 600 μg/ml): approximately 50%
concentration with inhibiting effect on proliferation (keratinocytes; cell count and MTT): greater than 500 μg/ml
toxic effect on cells at confluence (keratinocytes; up to 800 μg/ml): no toxic effect
surface area compared to the initial original surface area ([4]; 50 μg/ml): 50%
surface area compared to the non-treated control ([4]; 50 μg/ml, after two weeks at the air-liquid interface): do not show any significant difference
surface area compared to the initial original surface area ([4]; 200 μg/ml): 40%
surface area compared to the initial original surface area ([4]; 500 μg/ml): 40%
reduction in surface area compared to original state ([4]; 500 μg/ml, immersed, before raising to the air-liquid interface): 17%
surface area compared to that of the control ([4]; 200 or 500 μg/ml, after two weeks at the air-liquid interface): significantly greater surface area
retraction compared to the control ([4]; skins still in immersed culture): significant dose-dependent reduction
histology of the reconstructed skins ([5]; 50 μg/ml or 200 μg/ml): does not seem to be fundamentally changed
detection of the LOX and LOXL genes by in situ hybridization ([5]; 50 μg/ml, dermis and epidermis): slight increase
synthesis of extracellular matrix / colonization of the sponge by the fibroblasts ([5]; dermis of reconstructed skin): increased synthesis of ECM
